# Laboratory results taken from article PMC5344255, “Design, Synthesis and Biochemical Evaluation of Novel Selective Estrogen Receptor Ligand Conjugates Incorporating an Endoxifen-Combretastatin Hybrid Scaffold” (Biomedicines, 2016).
# Values joined by “and” are separate entries in the source; they are usually repeats but may differ in a detail not shown here. Equal values may be shown once. Marks after values point to notes of the source that are not given here.
# Columns and labels:
# [1] = test system: MDA-MB-231 human breast cancer cells; test: Lactate dehydrogenase (LDH) cytotoxicity assay in MDA-MB-231; assay type: cell-based; conditions: % cell lysis at 10 μM
# In short: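 Cells seeded at 1 × 10^4 per well and grown 24 h, then dosed with compounds over 1 nM–50 μM. Cell lysis quantified as released cytoplasmic LDH using the CytoTox 96 nonradioactive cytotoxicity assay.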
# MOLT-4 = test: NCI 60 cell line screen; assay type: cell-based, human; conditions: MOLT-4 (Leukemia)
# HT29 = test: NCI 60 cell line screen; assay type: cell-based, human; conditions: HT29 (Colon Cancer)
# SF539 = test: NCI 60 cell line screen; assay type: cell-based, human; conditions: SF539 (CNS Cancer)
# U251 = test: NCI 60 cell line screen; assay type: cell-based, human; conditions: U251 (CNS Cancer)
# OVCAR-5 = test: NCI 60 cell line screen; assay type: cell-based, human; conditions: OVCAR-5 (Ovarian Cancer); one-dose 10 µM
structure (smiles),measurement,setting,value
"CCC(=C(c1ccc(O)cc1)c1ccc(OCCN(C)C(=O)/C(=C/c2ccc(OC)c(O)c2)c2cc(OC)c(OC)c(OC)c2)cc1)c1ccc(O)cc1 (mixture of isomers) [Compound 28, (E)-N-(2-{4-[(E/Z)-1,2-Bis-(4-hydroxyphenyl)but-1-enyl]-phenoxy}ethyl)-3-(3-hydroxy-4-methoxyphenyl)-N-methyl-2-(3,4,5-trimethoxyphenyl)acrylamide]",% Cell Death at 10 μM,[1],15%
same,GI50,"MOLT-4; Homo sapiens, five-dose screen",1.52 µM
same,GI% (10^−5 M),MOLT-4; one-dose 10 µM,64.31%
same,GI% (10^−5 M),HT29; one-dose 10 µM,"100 ^d,l %"
same,GI50,"HT29; Homo sapiens, HT-29, five-dose screen",1.16 µM
same,GI50,"SF539; Homo sapiens, SF-539, five-dose screen",1.18 µM
same,GI% (10^−5 M),SF539; one-dose 10 µM,"100 ^d,n %"
same,GI50,"U251; Homo sapiens, U-251, five-dose screen",1.74 µM
same,GI% (10^−5 M),U251; one-dose 10 µM,93% and 93.37%
same,GI% (10^−5 M),OVCAR-5,3.21%
